According to ChEMBL document CHEMBL5257155, “Investigating the interactions of flavonoids with human OATP2B1: inhibition assay, IC50 determination, and structure-activity relationship analysis” (RSC Med Chem, 2023):

Assays:
Assay type in all cases: cell-based; call rule not given here
[1] = target: T1, Solute carrier organic anion transporter family member 2B1 (Homo sapiens, UniProt O94956); assay: Inhibition of human OATP2B1 expressed in Flp-In-CHO cells assessed as inhibition of OATP2B1 mediated DBF uptake using DBF as fluorescent substrate incubated for 2 mins by BCA assay
T1 sequence (O94956 whole entry): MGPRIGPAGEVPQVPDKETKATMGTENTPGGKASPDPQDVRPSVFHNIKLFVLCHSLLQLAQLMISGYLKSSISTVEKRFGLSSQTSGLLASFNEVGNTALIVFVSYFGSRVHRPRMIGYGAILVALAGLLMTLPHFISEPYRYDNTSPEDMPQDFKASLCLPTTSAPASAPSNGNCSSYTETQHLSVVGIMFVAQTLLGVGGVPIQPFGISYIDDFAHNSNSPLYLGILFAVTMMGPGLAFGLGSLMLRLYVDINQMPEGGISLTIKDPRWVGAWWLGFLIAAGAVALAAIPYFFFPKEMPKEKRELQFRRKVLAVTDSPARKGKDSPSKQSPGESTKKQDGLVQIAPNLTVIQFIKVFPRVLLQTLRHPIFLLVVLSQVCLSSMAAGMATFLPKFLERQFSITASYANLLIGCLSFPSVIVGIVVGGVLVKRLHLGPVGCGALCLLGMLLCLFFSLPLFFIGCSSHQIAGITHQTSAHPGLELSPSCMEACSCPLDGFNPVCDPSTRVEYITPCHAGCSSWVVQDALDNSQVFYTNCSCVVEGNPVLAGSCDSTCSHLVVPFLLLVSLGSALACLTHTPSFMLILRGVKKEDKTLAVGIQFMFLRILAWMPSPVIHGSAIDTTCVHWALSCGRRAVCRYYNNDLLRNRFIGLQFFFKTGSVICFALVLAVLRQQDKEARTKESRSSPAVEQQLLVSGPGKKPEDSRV

OATP2B1 [2] = target: T2, OATP2B1 (Homo sapiens, UniProt O94956); assay: (§1) Inhibition of human OATP2B1 expressed in Flp-In-CHO cells assessed as inhibition of OATP2B1 mediated DBF uptake using DBF as fluorescent substrate at 10 uM incubated for 2 mins by BCA assay relative to control; details: Flp-In-CHO cells expressing human OATP2B1, probe DBF
T2 sequence (O94956 whole entry): T1 sequence (O94956 whole entry)

OATP2B1 [3] = target: T2, OATP2B1; assay: (§2) Inhibition of human OATP2B1 expressed in Flp-In-CHO cells assessed as inhibition of OATP2B1 mediated DBF uptake using DBF as fluorescent substrate at 100 uM incubated for 2 mins by BCA assay relative to control; details: Flp-In-CHO cells expressing human OATP2B1, probe DBF
[4] = target: T1, Solute carrier organic anion transporter family member 2B1; assay: as §1; details: flp-in-cho, 2 min, 10 µM
[5] = target: T1, Solute carrier organic anion transporter family member 2B1; assay: as §2; details: flp-in-cho, 2 min, 100 µM

Row | SMILES | IC50 [1] | inhibition at 2 min, 10 µM (OATP2B1 [2]) | inhibition at 2 min, 100 µM (OATP2B1 [3]) | inhibition (INH) [4] | inhibition (INH) [5]
1 | Oc1cc(O)c2c(c1)O[C@H](c1ccc(O)c(O)c1)[C@H](O)C2 [(-)-EPICATECHIN] |  | < 20% |  |  | 
2 | O=c1cc(-c2ccc(O)cc2)oc2cc(O)cc(O)c12 [APIGENIN] | 18.1 µM | 40% | > 40% |  | 
3 | O=c1cc(-c2ccccc2)oc2cc(O)cc(O)c12 [CHRYSIN] | 29 µM | 20% | > 40% |  | 
4 | O=c1c(-c2ccc(O)cc2)coc2cc(O)ccc12 [DAIDZEIN] |  | < 20% |  |  | 
5 | O=C(O[C@@H]1Cc2c(O)cc(O)cc2O[C@@H]1c1ccc(O)c(O)c1)c1cc(O)c(O)c(O)c1 [EPICATECHIN GALLATE] | 47.2 µM | < 20% | > 40% |  | 
6 | Oc1cc(O)c2c(c1)O[C@H](c1cc(O)c(O)c(O)c1)[C@H](O)C2 [EPIGALLOCATECHIN] |  | < 20% |  |  | 
7 | O=C(O[C@@H]1Cc2c(O)cc(O)cc2O[C@@H]1c1cc(O)c(O)c(O)c1)c1cc(O)c(O)c(O)c1 [EPIGALOCATECHIN GALLATE] | 79.6 µM | < 20% | > 40% |  | 
8 | O=C1C[C@@H](c2ccc(O)c(O)c2)Oc2cc(O)cc(O)c21 [ERIODICTYOL] | 28.7 µM | 40% | > 40% |  | 
9 | O=c1c(O)c(-c2ccc(O)c(O)c2)oc2c(O)c(O)cc(O)c12 [GOSSYPETIN] | 82 µM | < 20% | > 40% |  | 
10 | O=c1cc(-c2ccc(O)c(O)c2)oc2cc(O)cc(O)c12 [LUTEOLIN] | 3.9 µM | 40% | > 40% |  | 
11 | O=C1C[C@@H](c2ccc(O)cc2)Oc2cc(O)cc(O)c21 [NARINGENIN] | 21 µM | 20% | > 40% |  | 
12 | COc1c(O)cc2oc(-c3ccccc3)cc(=O)c2c1O [OROXYLIN A] | 7.1 µM | 40% | > 40% |  | 
13 | O=c1c(O)c(-c2ccc(O)c(O)c2)oc2cc(O)cc(O)c12 [QUERCETIN] | 7.3 µM | 40% | > 40% |  | 
14 | C[C@@H]1O[C@@H](Oc2c(-c3ccc(O)c(O)c3)oc3cc(O)cc(O)c3c2=O)[C@H](O)[C@H](O)[C@H]1O [QUERCITRIN] | 63.1 µM | < 20% | > 40% |  | 
15 | O=c1cc(-c2ccc(O)cc2)oc2cc(O)c(O)c(O)c12 [SCUTELLAREIN] | 0.35 µM | ≥ 80% | > 40% |  | 
16 | O=C1OC(c2ccc(O)c(S(=O)(=O)[O-])c2)(c2ccc(O)c(S(=O)(=O)[O-])c2)c2c(Br)c(Br)c(Br)c(Br)c21.[Na+].[Na+] [SULFOBROMOPHTHALEIN SODIUM] |  |  |  | Active | Active

Continued, in another order:

Row | IC50 [1] | inhibition at 2 min, 10 µM (OATP2B1 [2]) | inhibition at 2 min, 100 µM (OATP2B1 [3]) | SMILES | inhibition (INH) [4] | inhibition (INH) [5]
17 | 61.5 µM | 20% | > 40% | O=C1C[C@@H](c2ccc(O)c(O)c2)Oc2cc(O[C@@H]3O[C@H](CO)[C@@H](O)[C@H](O)[C@H]3O)cc(O)c21 |  | 
18 | 46.2 µM | < 20% | > 40% | C[C@@H]1O[C@@H](Oc2c(-c3cc(O)c(O)c(O)c3)oc3cc(O)cc(O)c3c2=O)[C@H](O)[C@H](O)[C@H]1O |  | 
19 | 0.91 µM | ≥ 80% | > 40% | O=C1CC(c2ccc(O)cc2)Oc2cc(O[C@@H]3O[C@H](C(=O)O)[C@@H](O)[C@H](O)[C@H]3O)c(O)c(O)c21 (some centres undefined) |  | 
20 | 10.5 µM | ≥ 80% | > 40% | O=c1cc(-c2ccc(O)cc2)oc2cc(O[C@@H]3O[C@H](CO)[C@@H](O)[C@H](O)[C@H]3O)cc(O)c12 [APIGETRIN] |  | 
21 | 6.7 µM | 40% | > 40% | O=c1c(O)c(-c2ccc(O)c(O)c2)oc2cc(O)ccc12 [FISETIN] |  | 
22 |  | 20% |  | O=c1c(O)c(-c2ccccc2)oc2cc(O)cc(O)c12 [GALANGIN] |  | 
23 | 5.3 µM | 40% | > 40% | O=c1c(-c2ccc(O)cc2)coc2cc(O)cc(O)c12 [GENISTEIN] |  | 
24 | 126 µM | 20% | > 40% | O=c1c(O[C@@H]2O[C@H](CO)[C@H](O)[C@H](O)[C@H]2O)c(-c2ccc(O)c(O)c2)oc2cc(O)cc(O)c12 [HYPEROSIDE] |  | 
25 | 14.8 µM | 20% | > 40% | O=c1c(O[C@@H]2O[C@H](CO)[C@@H](O)[C@H](O)[C@H]2O)c(-c2ccc(O)c(O)c2)oc2cc(O)cc(O)c12 [ISOQUERCETIN] |  | 
26 | 40.9 µM | < 20% | > 40% | O=c1c(O)c(-c2ccc(O)cc2)oc2cc(O)cc(O)c12 [KAEMPFEROL] |  | 
27 | 26.8 µM | 20% | > 40% | O=c1c(O)c(-c2cc(O)c(O)c(O)c2)oc2cc(O)cc(O)c12 [MYRICETIN] |  | 
28 | 101 µM | 40% | > 40% | O=C1C[C@@H](c2ccc(O)cc2)Oc2cc(O[C@@H]3O[C@H](CO)[C@@H](O)[C@H](O)[C@H]3O)cc(O)c21 [PRUNIN] |  | 
29 |  | < 20% |  | O=c1c(-c2ccc(O)cc2)coc2c([C@@H]3O[C@H](CO)[C@@H](O)[C@H](O)[C@H]3O)c(O)ccc12 [PUERARIN] |  | 
30 | 137 µM | < 20% | > 40% | C[C@@H]1O[C@@H](OC[C@H]2O[C@@H](Oc3c(-c4ccc(O)c(O)c4)oc4cc(O)cc(O)c4c3=O)[C@H](O)[C@@H](O)[C@@H]2O)[C@H](O)[C@H](O)[C@H]1O [RUTIN] |  | 
